Assay results from patent publication US5637595A, “Cyclic ether acetal PAF antagonists” (British Bio-technology Limited, priority 1991, dated 1997).

Columns and labels:
[1] = system: PAF-induced hypotension in the rat; experiment: Inhibition of PAF-induced hypotension in the rat; type: in vivo, rat (male Sprague-Dawley); conditions: iv, anaesthetised rats, PAF 100 ng/kg/min i.v. infusion, test compound i.v. bolus, straight line interpolation, read-out: ED50, dose to cause a 50% reversal of the hypotensive PAF response
Procedure: Male Sprague-Dawley rats (300-400 g) were anaesthetised with a mixture of sodium pentobarbitone, 22.5 mg/kg and thiopental 62.5 mg/kg. Through a midline incision in the neck, the trachea was cannulated and the animals breathed spontaneously. A carotid artery was cannulated for the measurement of blood pressure and this signal was used to trigger a rate meter to measure heart rate. Both jugular veins were cannulated: one for the infusion of PAF and the other for the bolus administration of test compounds.
PAF, 100 ng/kg/min was infused i.v. until a sustained fall in mean blood pressure of 50 mmHg was achieved. […] The peak of this reversal was measured and the dose to cause a 50% reversal of the hypotensive PAF response (ED50) calculated by straight line interpolation and the results are presented in Table 2.

[2] = molecular target: T1, PAF receptor (human platelet plasma membranes) (Homo sapiens, UniProt P25105); experiment: Inhibition of [^3 H]-PAF receptor binding to human platelet plasma membranes; conditions: [^3 H]-PAF 0.5 nM, 0° C., 1 hour incubation, pH 7.0
T1 construct: Platelet concentrates were obtained from a hospital blood bank; from tissue; host or cells: human platelets (platelet concentrates from a hospital blood bank), lysed membranes
Procedure: The inhibition of [^3 H]-PAF binding to human platelet plasma membranes by compounds of general formula I was determined by isotopic labelling and filtration techniques. Platelet concentrates were obtained from a hospital blood bank. These platelet concentrates (500-2500 ml.) were centrifuged at 800 rpm for 10 minutes in a SORVALL RC3B centrifuge to remove the red blood cells present. (The word SORVALL is a trade mark.) The supernalant was subsequently centrifuged at 3,000 rpm in a SORVALL RC3B centrifuge to pellet the platelets present. The platelet rich pellets were resuspended in a minimum volume of buffer (150 mM NaCl, 10 mM Tris, 2 mM EDTA, pH 7.5) and layered onto Ficoll-Paque gradients, 9 ml platelet concentrate to 2 ml Ficoll, and centrifuged at 1,900 rpm for 15 minutes in a SORVALL RT6000 centrifuge. This step removes the residual red blood cells and other nonspecific material such as lymphocytes from the preparation. The platelets which form a band between the plasma and the Ficoll were removed, resuspended in the above buffer and centrifuged at 3,000 rpm for 10 minutes in a SORVALL RT6000 centrifuge. The pelleted platelets were resuspended in buffer (10 mM Tris, 5mM MgCl2, 2 mM EDTA, pH 7.0), snap freezed in liquid N2 and allowed to thaw slowly at room temperature in order to lyse the platelets. The latter step was repeated at least 3 times to ensure proper lysis. […]

T1 sequence (P25105 whole entry): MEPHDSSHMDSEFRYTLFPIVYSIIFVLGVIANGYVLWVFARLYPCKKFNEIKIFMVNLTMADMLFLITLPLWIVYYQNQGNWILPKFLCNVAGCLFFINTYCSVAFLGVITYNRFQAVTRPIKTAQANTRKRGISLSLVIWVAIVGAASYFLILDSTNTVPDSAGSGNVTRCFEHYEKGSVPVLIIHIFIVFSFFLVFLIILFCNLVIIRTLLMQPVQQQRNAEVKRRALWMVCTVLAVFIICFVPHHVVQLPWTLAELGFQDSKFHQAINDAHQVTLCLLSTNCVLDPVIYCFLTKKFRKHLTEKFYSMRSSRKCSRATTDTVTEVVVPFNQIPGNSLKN

Row | IC50 [2] [nM] | Compound | ED50 [1] [µg/kg]
1 | 120 | CCCCCCCC1CCC(OCCCn2c(C)nc3cnccc32)O1 (stereo not drawn) [Example 2, O-(3-(2-Methylimidazo[4,5-c]pyrid-1-yl)propyl)-5-n-heptyl-gamma-butyrolactol ether] | 2.1
2 | 80 | CCCCCCCC1CCCC(OCCCn2c(C)nc3cnccc32)O1 (stereo not drawn) [Example 1, O-(3-(2-Methylimidazo[4,5-c]pyrid-1-yl)propyl)-5-n-heptyl-delta-valerolactol ether] | –
